What was measured:
[1] = target: MRE11 (Homo sapiens (Human), UniProt P49959); test: HTS nuclease assay (fluorescence-quenched 5′ overhang DNA substrate cleavage); assay type: biochemical; settings: 18 nM MRE11, 40 nM DNA substrate, analysis at t=4 h
Protocol: DNA Substrate Preparation
The DNA substrate is prepared by mixing the oligonucleotides listed below in a 1:1 ratio to reach a final concentration of 6 μM in a buffer containing 50 mM Tris pH 7.5, 100 mM NaCl and 8 mM MgCl2.
The mixture is heat for 3 min at 65° C. and let to cool down slowly to RT. Then it is stored at −20° C.
This substrate is a 5′ overhang, which is a preferred substrate of MRE11. […] The fluorescence increases upon substrate cleavage by MRE11, when separation of the two labels occur.
The conditions of the assay are as follows:
Total reaction volume: 5 μL
DNA substrate concentration in the reaction: 40 nM
Inhibitor concentration range tested: 7 nM-50 μM
Each plate contains a series of high and low signal control wells, where no compound is added:
High signal: MRE11+DNA substrate
Low signal: DNA substrate only
These are used during data evaluation.
Two Extra Assay Controls:
1) To check whether unwinding of DNA by the compounds alone occurs.
The DNA substrate [CY5+BBQ(650)] is mixed with the compounds with no protein present.
The CY5 single stranded oligo is mixed with the compounds with no protein present.
The layout of the plates is created by the in-house software (CZ-Openscreen Prague) and this information is transferred to the robotic HTS station.
The reaction is started by the addition of DNA and the reaction time is counted from that moment, including a 15 min delay. Ten timepoints are measured:
The assay data analysis was performed at t=4 h. This corresponds to the time when the reaction is close to its maximum.
The data analysis was performed using the in-house software (CZ-Openscreen Prague) to obtain IC50 for each compound.

[2] = system: DR-GFP U2OS cells; test: HR assay (GFP fluorescence by flow cytometry after I-SceI transfection); assay type: cell-based; settings: Homo sapiens, 25 μM inhibitor, 72 hours after transfection
Protocol: DR-GFP U2OS cells (Methods in Molecular Biology 2012, 920, 379.) were transfected with 2.5 μg of I-SceI-expressing pCAGGS vector and treated with the inhibitors at 25 μM concentration. 72 hours after the transfection, the cells were trypsinized and resuspended in 3% BSA in PBS. GFP fluorescence detection was carried out using a BD FACSVerse flow cytometer and data analyzed with FlowJo software.

[3] = system: Phosphorylated RPA32 S4/S8 in U2OS cells; test: RPA assay (camptothecin-induced RPA phosphorylation); assay type: cell-based; settings: Homo sapiens, 1 h pre-treatment, 1 uM camptothecin 1 h; for inhibition at 10 µM: 10 μM inhibitor
Protocol: U2OS cells were pre-treated for 1 h with MRE11 inhibitors followed by addition of 1 uM camptothecin for 1 h. Cells were lysed in SDS-PAGE loading buffer, sonicated and boiled at 70° C. for 10 min. Equal amounts of protein (50-100 μg) were analysed by Tris-glycine gel electrophoresis Expression levels were quantified using Multi Gauge software and expressed relative to loading control. Phosphorylated RPA32 S4/S8 (A300-245A, Bethyl Laboratories) 1:1000 dilution was used.

Chain of MRE11 (P49959 whole entry): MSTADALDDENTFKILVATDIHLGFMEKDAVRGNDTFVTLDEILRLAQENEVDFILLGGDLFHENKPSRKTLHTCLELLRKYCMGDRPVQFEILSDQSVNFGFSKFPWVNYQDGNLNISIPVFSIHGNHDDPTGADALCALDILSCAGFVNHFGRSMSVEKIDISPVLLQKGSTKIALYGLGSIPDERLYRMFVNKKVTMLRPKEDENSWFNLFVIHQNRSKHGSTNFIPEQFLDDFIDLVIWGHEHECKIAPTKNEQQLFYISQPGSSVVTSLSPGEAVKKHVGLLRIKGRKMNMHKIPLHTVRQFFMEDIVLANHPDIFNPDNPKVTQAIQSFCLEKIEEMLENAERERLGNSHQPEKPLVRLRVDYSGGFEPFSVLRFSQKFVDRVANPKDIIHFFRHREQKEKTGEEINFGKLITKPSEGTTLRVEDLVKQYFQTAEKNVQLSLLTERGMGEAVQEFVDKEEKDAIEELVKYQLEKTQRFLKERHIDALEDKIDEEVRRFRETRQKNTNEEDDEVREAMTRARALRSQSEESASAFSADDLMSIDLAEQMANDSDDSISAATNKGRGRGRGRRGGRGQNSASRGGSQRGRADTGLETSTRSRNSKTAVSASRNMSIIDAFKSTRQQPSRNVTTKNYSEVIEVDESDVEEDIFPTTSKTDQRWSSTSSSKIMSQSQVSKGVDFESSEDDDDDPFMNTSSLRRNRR

## N#CC(Cc1ccc(O)c(O)c1)C(=O)Nc1nc(-c2ccc(Br)cc2)cs1 (centres unmarked) [Preparative Example 129, N-(4-(4-bromophenyl)thiazol-2-yl)-2-cyano-3-(3,4-dihydroxyphenyl)propanamide]
[1]
  IC50: 2 to 10 µM
[2]
  inhibition at 25 µM: > 75%
[3]
  inhibition at 10 µM: 60%

## N#CC(Cc1ccc(O)c(O)c1)C(=O)Nc1nc(-c2ccc(OC(F)(F)F)cc2)cs1 (centres unmarked) [Preparative Example 136, 2-cyano-3-(3,4-dihydroxyphenyl)-N-(4-(4-(trifluoromethoxy)phenyl)thiazol-2-yl)propanamide]
[1]
  IC50: 2 to 10 µM
[2]
  inhibition at 25 µM: > 75%
[3]
  inhibition at 10 µM: 40%

## CC(C)(C)c1cc(CC(C#N)C(=O)Nc2nc(-c3ccccc3)cs2)cc(C(C)(C)C)c1O (centres unmarked) [Preparative Example 139, 2-cyano-3-(3,5-di-tert-butyl-4-hydroxyphenyl)-N-(4-phenylthiazol-2-yl)propanamide]
[2]
  inhibition at 25 µM: > 75%
[3]
  inhibition at 10 µM: 70%

## CC(C)(C)c1ccc(-c2csc(NC(=O)C(C#N)Cc3ccc(O)c(O)c3)n2)cc1 (centres unmarked) [Preparative Example 140, N-(4-(4-(tert-butyl)phenyl)thiazol-2-yl)-2-cyano-3-(3,4-dihydroxyphenyl)propanamide]
[1]
  IC50: 2 to 10 µM
[2]
  inhibition at 25 µM: > 75%
[3]
  inhibition at 10 µM: 40%

## N#CC(Cc1ccc(O)c(O)c1Br)C(=O)Nc1nc(-c2ccccc2)cs1 (centres unmarked) [Preparative Example 148, 3-(2-bromo-3,4-dihydroxyphenyl)-2-cyano-N-(4-phenylthiazol-2-yl)propanamide]
[1]
  IC50: < 2 µM
[2]
  inhibition at 25 µM: > 75%
[3]; 25 μM inhibitor
  inhibition at 25 µM: 90%

## Cc1ccc(-c2csc(NC(=O)C(C#N)Cc3ccc(O)c(O)c3)n2)nc1 (centres unmarked) [Preparative Example 165, 2-cyano-3-(3,4-dihydroxyphenyl)-N-(4-(5-methylpyridin-2-yl)thiazol-2-yl)propanamide]
[1]
  IC50: < 2 µM
[2]
  inhibition at 25 µM: > 75%

## CC(C)c1ccc(-c2csc(NC(=O)C(C#N)Cc3ccc(O)c(O)c3)n2)cc1 (centres unmarked) [Preparative Example 166, 2-cyano-3-(3,4-dihydroxyphenyl)-N-(4-(4-isopropylphenyl)thiazol-2-yl)propanamide]
[1]
  IC50: 2 to 10 µM
[2]
  inhibition at 25 µM: > 75%

## COc1ccnc(-c2csc(NC(=O)C(C#N)Cc3ccc(O)c(O)c3)n2)c1 (centres unmarked) [Preparative Example 167, 2-cyano-3-(3,4-dihydroxyphenyl)-N-(4-(4-methoxypyridin-2-yl)thiazol-2-yl)propanamide]
[1]
  IC50: < 2 µM
[2]
  inhibition at 25 µM: > 75%

## COc1ccc(-c2csc(NC(=O)C(C#N)Cc3ccc(O)c(O)c3)n2)nc1 (centres unmarked) [Preparative Example 168, 2-cyano-3-(3,4-dihydroxyphenyl)-N-(4-(5-methoxypyridin-2-yl)thiazol-2-yl)propanamide]
[1]
  IC50: < 2 µM
[2]
  inhibition at 25 µM: > 75%

## CC(C)(C)c1cc(CC(C#N)C(=O)Nc2nc(-c3ccccn3)cs2)cc(C(C)(C)C)c1O (centres unmarked) [Preparative Example 169, 2-cyano-3-(3,5-di-tert-butyl-4-hydroxyphenyl)-N-(4-(pyridin-2-yl)thiazol-2-yl)propanamide]
[1]
  IC50: 10 to 90 µM
[2]
  inhibition at 25 µM: > 75%

## COc1cccc(-c2csc(NC(=O)C(C#N)Cc3ccc(O)c(O)c3)n2)n1 (centres unmarked) [Preparative Example 170, 2-cyano-3-(3,4-dihydroxyphenyl)-N-(4-(6-methoxypyridin-2-yl)thiazol-2-yl)propanamide]
[1]
  IC50: 2 to 10 µM
[2]
  inhibition at 25 µM: 50 to 75%

## N#CC(Cc1ccc(O)c(O)c1)C(=O)Nc1nc(-c2ccc(Cl)cc2Cl)cs1 (centres unmarked) [Preparative Example 171, 2-cyano-N-(4-(2,4-dichlorophenyl)thiazol-2-yl)-3-(3,4-dihydroxyphenyl)propanamide]
[1]
  IC50: < 2 µM
[2]
  inhibition at 25 µM: > 75%

## N#CC(Cc1ccc(O)c(O)c1)C(=O)Nc1nc(-c2ncccc2F)cs1 (centres unmarked) [Preparative Example 172, 2-cyano-3-(3,4-dihydroxyphenyl)-N-(4-(3-fluoropyridin-2-yl)thiazol-2-yl)propanamide]
[1]
  IC50: < 2 µM
[2]
  inhibition at 25 µM: > 75%

## COc1ccc(-c2csc(NC(=O)C(C#N)Cc3ccc(O)c(O)c3)n2)c(F)c1 (centres unmarked) [Preparative Example 173, 2-cyano-3-(3,4-dihydroxyphenyl)-N-(4-(2-fluoro-4-methoxyphenyl)thiazol-2-yl)propanamide]
[1]
  IC50: < 2 µM
[2]
  inhibition at 25 µM: > 75%

## N#CC(Cc1ccc(O)c(O)c1)C(=O)Nc1nc(-c2cc(C(F)(F)F)ccn2)cs1 (centres unmarked) [Preparative Example 174, 2-cyano-3-(3,4-dihydroxyphenyl)-N-(4-(4-(trifluoromethyl)pyridin-2-yl)thiazol-2-yl)propanamide]
[1]
  IC50: < 2 µM
[2]
  inhibition at 25 µM: > 75%

## N#CC(Cc1ccc(O)c(O)c1)C(=O)Nc1nc(-c2cc(Cl)sc2Cl)cs1 (centres unmarked) [Preparative Example 175, 2-cyano-N-(4-(2,5-dichlorothiophen-3-yl)thiazol-2-yl)-3-(3,4-dihydroxyphenyl)propanamide]
[1]
  IC50: 2 to 10 µM
[2]
  inhibition at 25 µM: 50 to 75%

## CC(C#N)(Cc1ccc(O)c(O)c1)C(=O)Nc1nc(-c2ccccc2)cs1 (centres unmarked) [Preparative Example 179, 2-cyano-3-(3,4-dihydroxyphenyl)-2-methyl-N-(4-phenylthiazol-2-yl)propanamide]
[1]
  IC50: 10 to 90 µM
[2]
  inhibition at 25 µM: < 50%

Source: patent US11453663B2, “Substituted propanamides as inhibitors of nucleases” (MASARYKOVA UNIVERZITA, priority 2018, dated 2022)
